Here are results for two molecules from US12478601B2, “Dietary product devoid of at least two non essential amino acids” (CANCER RESEARCH TECHNOLOGY LIMITED, priority 2016, dated 2025).

“Also recorded” adds a separate entry of the source.

Assay [1] has as its system Colorectal and breast cancer cell lines. Kind of assay: Rescue from cysteine starvation by homocysteine supplementation. The class given is cell-based. Particulars: homocysteine 0.2 mM & 0.8 mM, three days. On the procedure: FIG. 39. […] Colorectal and breast cancer cell lines were grown in 24-well plates. Basal medium was formulated (based on RPMI medium) lacking cysteine but containing all 19 other essential and non-essential amino acids. This basal medium was supplemented with the stated components; cysteine 0.4 mM (+Cys), homocysteine 0.2 mM & 0.8 mM (HC) and grown for three days. Data are average of three wells. Error bars=STDEV.
(§1) Cells (4×10^4-1×10^5) were seeded in complete RPMI or DMEM medium in 24-well plates and allowed to adhere overnight. Cells were then washed with PBS and received assay medium supplemented with the stated amino acids/metabolites/drugs. Assay medium was formulated based on RPMI-1640 medium but lacking amino acids, which were added individually depending on the assay. Assay medium was also supplemented with additional vitamin B6 (20 uM), a co-factor for cysteine synthesis. Cells were counted (using Casy TT cell counter, Innovatis, Roche Applied Science) at the stated time-points, using a “time=0” plate to calculate relative cell number from time of medium change.

The subject of the next assay is MDA-MB-231 cells. Kind of assay: Cysteine starvation of MDA-MB-231 cells after AMD1 inhibitor pre-treatment. Type of assay: cell-based. Particulars: 20 uM for 16 h before medium lacking cysteine. On the procedure:
FIG. 40. […] MDA-MB-231 cells were initially seeded in complete (DMEM) medium in 24-well plates. After 24 h, cells were treated with AMD1 inhibitor Sardomozide (20 uM) for 16 h or left untreated (Ctr). Cells were then washed with PBS and given medium lacking cysteine but containing all 19 other amino acids. Images (panel a) were captured using a light microscope, and cell counts (panel b) were performed using a CASY TT cell counter. Data are average of three wells. Error bars=STDEV.
as §1

With `N[C@@H](CCS)C(=O)O` [homocysteine], the “rescue from cysteine starvation” value in assay [1] is on record as “rescued from cysteine starvation; also recorded: significant rescue from cysteine starvation”.
Turning to `N=C(N)N/N=C1\CCc2c(C(=N)N)cccc21` [Sardomozide], the “protection from cell death in cysteine starvation” value in the assay with MDA-MB-231 cells is listed as “protects cells from acute sensitivity (i.e. cell death) to cysteine starvation”.
